Measured values reported in publication PMC9767854, “Discovery and mechanism studies of a novel ATG4B inhibitor Ebselen by drug repurposing and its anti-colorectal cancer effects in mice” (Cell & Bioscience, 2022).

How the values were obtained:
[1] = Body weight and organ H&E in xenografted mice; assay type: in vivo, BALB/c-nu/nu mice; conditions: 5, 10, 20 mg/kg i.p. every two days
Method: Four- to six-weeks-old BALB/C nu/nu female mice purchased from the Experimental Animal Center of Sun Yat-Sen University, were approved by the Animal Ethics Committee at Sun Yat-sen University and kept in specific-pathogen-free environment. Approximately 2 × 10^6 SW620 cells or 1 × 10^7 HCT116 cells were injected subcutaneously into the dorsal flank on the right side of the mice. Different groups were divided randomly when the tumor volume was approximately 60–80 mm^3, before drug administration intraperitoneally (i.p.). Tumor volume was measured by calipers and calculated using the equation: 0.5 × length × width^2. At the end of the experiments, the mice were sacrificed and tumors were dissected and weighed. In particular, we employed Servicebio (Wuhan, China) to carry out H&E staining and immunohistochemistry assay.
Supplementary file 13578_2022_944_MOESM1_ESM.docx: Additional file 1: Figure S1. Screening of ATG4B inhibitors based on the approved drugs library by FRET assay. […] (D) Candidate compound number and name correspondence table, and IC50 calculation of nine commercially available compounds for ATG4B by FRET assay. Figure S2. […] Figure S3. […] Figure S5. […] Figure S6.

[2] = molecular target: T1, Recombinant protein ATG4A (Homo sapiens, UniProt Q8WYN0); assay: FRET-based assay for ATG4A activity; assay type: biochemical; conditions: FRET-based enzymatic cleavage
T1 construct: 6xHis; made in house; host or cells: E. coli BL21(DE3)
Method: FRET-based assay for ATG4B or ATG4A activity was operated as previously described. Briefly, Recombinant protein ATG4B (0.75 μg/ml) or ATG4A (5 μg/ml) was incubated with compounds in reaction buffer (150 mM NaCl, 20 mM Tris–HCl, pH 8.0, 0.1% CHAPS, 1 mM EDTA) at 37 °C. After 30 min, substrate FRET-GATE-16 (50 μg/ml) was added to a final volume of 50 μl. The reaction was recorded via relative fluorescence intensity ratio of 527 nm/477 nm (RFU). The final inhibition rate of the compound for ATG4 was calculated as: (RFUcompound-RFUNC)/(RFUCON-RFUNC) × 100%; respectively, NC as negative control without inhibitor, CON as control without enzymes. For ATG4 activity determination in cells and tissues, cells or separated tumor samples were homogenized in a native lysis buffer (150 mM NaCl, 20 mM Tris–HCl, pH 7.6, 1% TritonX-100, 1 mM EDTA) without protease inhibitors. Then 5 μg total proteins from each sample was added into FRET assay system after clean supernatant proteins were separated. The reaction was recorded via relative fluorescence intensity ratio of 527 nm/477 nm. Finally, the inhibition rates of ATG4B were calculated with the vehicle or CM group as the negative control (ATG4 activity defined as 100%).

[3] = test system: SW620; assay: Autophagy flux by LC3B-II western blot in SW620; assay type: cell-based; conditions: Ebselen 10 μM with CQ 40 μM
Method: Fig. 5 Ebselen suppresses autophagy flux via inhibition of ATG4B. A, B HeLa cells were treated with Torin 1 (2 μM) or CQ (40 μM) and detected by western blot. C, D SW620 cells were transduced with sgCon and sgATG4B lentiviruses, respectively. Then cells were treated with CQ (40 μM) and detected by western blot. E, F HCT116 were treated with Ebselen (5 and 10 μM) or CQ (40 μM) and subjected to western blot. G, H SW620 were treated with Ebselen (10 μM) or CQ (40 μM) and western blotting was carried out to detect the protein levels. I, J Immunofluorescence analysis of endogenous LC3B in HCT116 treated with Ebselen (10 μM) or CQ (40 μM). Dots numbers for LC3B were derived from counting at least 20 cells and 5 fields from three independent replicated experiments. Bar = 10 μm. K HCT116 cells were treated with 2 μM Torin 1 in the presence or absence of 10 μM Ebselen for 12 h, then the level ratio of long-lived proteins was measured by flow cytometry
Immunoblotting assay was performed reportedly previously. Commonly, cells were lysed in ice-cold RIPA lysis buffer (Beyotime, P0013B) supplemented with Pierce™ protease inhibitor tablet (ThermoFisher Scientific, A32965). […]

[4] = test system: Caspase 1, 2, 3, 4, 6, 8 and 9; assay: Caspase activity assay kits, caspase panel; assay type: biochemical; conditions: 10 μM; most caspases other than CASP2 and CASP3
Method: The enzyme activity of Caspase 1, Caspase 2, Caspase 3, Caspase 4, Caspase 6, Caspase 8 and Caspase 9 were determined via the activity assay kits (C1101, C1107, C1115, C1121, C1135, C1151 and C1157) from Beyotime (Shanghai, China). Then the experimental procedures were performed according to the manufacturer’s protocols.

T1 sequence (Q8WYN0 whole entry): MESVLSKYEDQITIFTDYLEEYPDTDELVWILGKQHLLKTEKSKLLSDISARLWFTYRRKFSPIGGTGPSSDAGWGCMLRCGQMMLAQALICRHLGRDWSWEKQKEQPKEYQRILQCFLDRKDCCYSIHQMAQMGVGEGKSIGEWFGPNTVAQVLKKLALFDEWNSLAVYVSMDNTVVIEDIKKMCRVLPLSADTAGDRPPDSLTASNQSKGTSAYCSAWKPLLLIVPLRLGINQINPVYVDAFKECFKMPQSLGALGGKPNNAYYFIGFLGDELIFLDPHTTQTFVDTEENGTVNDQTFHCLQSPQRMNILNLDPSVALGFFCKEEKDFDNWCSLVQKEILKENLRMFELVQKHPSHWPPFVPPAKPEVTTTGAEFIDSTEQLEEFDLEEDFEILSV

SMILES: O=c1c2ccccc2[se]n1-c1ccccc1 [Ebselen]
- body weight change or organs damage [1]: no obvious mice body weight change or organs damage
- inhibition of ATG4A compared to ATG4B [2]: weaker inhibition
- autophagic flux (LC3B-II) [3]: inhibition of autophagic flux
- effect on most caspase activities [4]: no significant effect
